The text below walks through data of paper PMC7665585, “Antidepressive effect of an inward rectifier K^+ channel blocker peptide, tertiapin-RQ” (PLoS ONE, 2020).

The target in this test is T1, rat ROMK (Rattus norvegicus, UniProt P35560).
T1 construct: expressed in transfected cells; host or cells: 293T cell line 208-4 (lentiviral transduction, GFP coexpressed)
T1 sequence (P35560 1-391): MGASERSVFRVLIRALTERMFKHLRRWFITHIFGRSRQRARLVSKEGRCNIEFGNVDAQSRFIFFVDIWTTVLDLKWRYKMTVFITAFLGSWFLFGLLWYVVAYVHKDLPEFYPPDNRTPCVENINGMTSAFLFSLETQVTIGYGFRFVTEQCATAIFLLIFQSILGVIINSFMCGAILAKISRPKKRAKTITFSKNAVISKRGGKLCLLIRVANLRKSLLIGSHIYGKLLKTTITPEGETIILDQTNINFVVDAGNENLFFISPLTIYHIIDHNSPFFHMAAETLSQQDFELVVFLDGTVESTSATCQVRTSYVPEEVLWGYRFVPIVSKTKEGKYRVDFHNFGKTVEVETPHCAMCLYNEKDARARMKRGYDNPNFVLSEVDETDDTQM
In words: Whole-cell patch-clamp of ROMK currents in 208–4 cells. The test is classed as cell-based. To be noted: blockade at 1 μM estimated from fitted Hill curve (four parameters), whole-cell conductance, n = 3–6, read-out: Activity (ROMK channel blocking activity, percentage of blockade at 1 μM). The text has this: The cDNAs for rat ROMK and mouse GIRK1, 2, and 4 were generously donated by Drs Mikio Hayashi (Kansai Medical University) and David Weaver (Vanderbilt University). The ROMK channels were stably expressed by a cell line, 208–4, which was transduced with lentiviral vectors coexpressing the channel and green fluorescent protein (GFP) as described previously. The GIRK genes, cloned in a pCMV6 plasmid (Origene Technologies Inc, Rockville, MD), were transiently expressed in 293T cells with calcium phosphate transfection. GIRK channel currents were recorded 24 h after transfection.
Cells grown on small cover glasses (3 × 18 mm) were placed in a recording chamber. Whole-cell currents were recorded in Tyrode solution using an Axopatch 200B amplifier (Axon Instruments, Foster City, CA) at 25°C. Tyrode solution contained (in mM): NaCl 140, KCl 5.4, NaH2PO4 0.33, CaCl2 2, MgCl2 1, HEPES 5, and glucose 5.5 (pH 7.4 adjusted with NaOH). High K^+ Tyrode solution (KCL 50 mM, NaCl 95 mM, and others were the same as standard Tyrode solution) was used for the recording of GIRK channels. Patch pipettes pulled from borosilicate glass (Narishige, Tokyo, Japan) were filled with an internal solution containing (in mM): K-aspartate 66, KCl 71.5, KH2PO4 1, EGTA 5, HEPES 5, and MgATP 3 (pH 7.4 adjusted with KOH). Recordings were digitized at 10 kHz, and low-pass filtered at 2 kHz. ROMK, Kir2.1, and GIRK currents were evoked with step pulses of 400 msec from -150 mV to 10 mV in 10 mV increments from a holding potential of -70 mV. Whole-cell currents were recorded 60 sec after the peptide application and those from 100 to 300 msec of the step pulses were averaged. Liquid junction potential or capacitive transient was not corrected or compensated. Whole-cell conductance was calculated as the slope of the current-voltage (I-V) relationship from -140 mV to -100 mV and normalized to the initial value (0 μM TPN), in which BaCl2-resistant current was subtracted and indicted as a percentage.

Bridge positions count the residues as written; N and C are the ends. Peptide text beside a SMILES is read from it.

Turning to `CC[C@H](C)[C@@H]1NC(=O)[C@H](CCCNC(=N)N)NC(=O)[C@H](CCCNC(=N)N)NC(=O)[C@H](CC(N)=O)NC(=O)[C@@H](N)CSSC[C@@H](C(N)=O)NC(=O)[C@H](CCC(N)=O)NC(=O)[C@H](Cc2c[nH]cn2)NC(=O)[C@@H]2CCCN2C(=O)[C@H]([C@@H](C)CC)NC1=O` [Peptide 35, TPN-RQ 5–14] (H-CNRRIIPHQC-NH2; disulfide 1-10), the inhibition at 1 µM was less than 20%.
For `CC[C@H](C)[C@@H]1NC(=O)[C@H](CCCNC(=N)N)NC(=O)[C@H](CCCNC(=N)N)NC(=O)[C@H](CC(N)=O)NC(=O)[C@@H](N)CSSC[C@@H](C(N)=O)NC(=O)[C@H](CCC(N)=O)NC(=O)[C@H](CCCCN)NC(=O)[C@@H]2CCCN2C(=O)[C@H]([C@@H](C)CC)NC1=O` [Peptide 36, TPN-RQ 5-14(H12K)] (H-CNRRIIPKQC-NH2; disulfide 1-10), the inhibition at 1 µM was less than 20%.
Then `CC[C@H](C)[C@@H]1NC(=O)[C@H](CCCNC(=N)N)NC(=O)[C@H](CCCNC(=N)N)NC(=O)[C@H](CC(N)=O)NC(=O)[C@@H](N)CSSC[C@@H](C(=O)N[C@@H](Cc2c[nH]c3ccccc23)C(=O)N[C@@H](CCCCN)C(=O)N[C@@H](CCCCN)C(N)=O)NC(=O)[C@H](CCC(N)=O)NC(=O)[C@H](Cc2c[nH]cn2)NC(=O)[C@@H]2CCCN2C(=O)[C@H]([C@@H](C)CC)NC1=O` [Peptide 37, TPN-RQ 5–17] (H-CNRRIIPHQCWKK-NH2; disulfide 1-10), with less than 20%; and `CC[C@H](C)[C@@H]1NC(=O)[C@H](CCCNC(=N)N)NC(=O)[C@H](CCCNC(=N)N)NC(=O)[C@H](CC(N)=O)NC(=O)[C@@H](N)CSSC[C@@H](C(=O)N[C@@H](Cc2c[nH]c3ccccc23)C(=O)N[C@@H](CCCCN)C(=O)N[C@@H](CCCCN)C(N)=O)NC(=O)[C@H](CCC(N)=O)NC(=O)[C@H](CCCCN)NC(=O)[C@@H]2CCCN2C(=O)[C@H]([C@@H](C)CC)NC1=O` [Peptide 38, TPN-RQ 5-17(H12K)] (H-CNRRIIPKQCWKK-NH2; disulfide 1-10), with less than 20%; and `CC[C@H](C)[C@@H]1NC(=O)[C@H](CCCNC(=N)N)NC(=O)[C@H](CCCNC(=N)N)NC(=O)[C@H](CC(N)=O)NC(=O)[C@@H](NC(=O)[C@@H](N)CC(N)=O)CSSC[C@@H](C(=O)N[C@@H](Cc2c[nH]c3ccccc23)C(=O)N[C@@H](CCCCN)C(=O)N[C@@H](CCCCN)C(N)=O)NC(=O)[C@H](CCC(N)=O)NC(=O)[C@H](Cc2c[nH]cn2)NC(=O)[C@@H]2CCCN2C(=O)[C@H]([C@@H](C)CC)NC1=O` [Peptide 39, TPN-RQ 4–17] (H-NCNRRIIPHQCWKK-NH2; disulfide 2-11), with less than 20%.
For `CC[C@H](C)[C@@H]1NC(=O)[C@H](CCCNC(=N)N)NC(=O)[C@H](CCCNC(=N)N)NC(=O)[C@H](CC(N)=O)NC(=O)[C@@H](NC(=O)[C@@H](N)CC(N)=O)CSSC[C@@H](C(=O)N[C@@H](Cc2c[nH]c3ccccc23)C(=O)N[C@@H](CCCCN)C(=O)N[C@@H](CCCCN)C(N)=O)NC(=O)[C@H](CCC(N)=O)NC(=O)[C@H](CCCCN)NC(=O)[C@@H]2CCCN2C(=O)[C@H]([C@@H](C)CC)NC1=O` [Peptide 40, TPN-RQ 4-17(H12K)] (H-NCNRRIIPKQCWKK-NH2; disulfide 2-11), the inhibition at 1 µM was less than 20%.
Then `CC[C@H](C)[C@@H]1NC(=O)[C@H](CCCNC(=N)N)NC(=O)[C@H](CCCNC(=N)N)NC(=O)[C@H](CC(N)=O)NC(=O)[C@H](CO)NC(=O)[C@H](CC(N)=O)NC(=O)[C@@H](N)CSSC[C@@H](C(=O)N[C@@H](Cc2c[nH]c3ccccc23)C(=O)N[C@@H](CCCCN)C(N)=O)NC(=O)[C@H](CCC(N)=O)NC(=O)[C@H](Cc2c[nH]cn2)NC(=O)[C@@H]2CCCN2C(=O)[C@H]([C@@H](C)CC)NC1=O` [Peptide 41, TPN-RQ 3-16(C5S)] (H-CNSNRRIIPHQCWK-NH2; disulfide 1-12), with less than 20%; and `CC[C@H](C)[C@@H]1NC(=O)[C@H](CCCNC(=N)N)NC(=O)[C@H](CCCNC(=N)N)NC(=O)[C@H](CC(N)=O)NC(=O)[C@H](CO)NC(=O)[C@H](CC(N)=O)NC(=O)[C@@H](N)CSSC[C@@H](C(=O)N[C@@H](Cc2c[nH]c3ccccc23)C(=O)N[C@@H](CCCCN)C(N)=O)NC(=O)[C@H](CCC(N)=O)NC(=O)[C@H](CCCCN)NC(=O)[C@@H]2CCCN2C(=O)[C@H]([C@@H](C)CC)NC1=O` [Peptide 42, TPN-RQ 3-16(C5S/H12K)] (H-CNSNRRIIPKQCWK-NH2; disulfide 1-12), with less than 20%; and `CC[C@H](C)[C@@H]1NC(=O)[C@H](CCCNC(=N)N)NC(=O)[C@H](CCCNC(=N)N)NC(=O)[C@H](CC(N)=O)NC(=O)[C@H](CO)NC(=O)[C@H](CC(N)=O)NC(=O)[C@@H](NC(=O)[C@@H](N)CCC(N)=O)CSSC[C@@H](C(=O)N[C@@H](Cc2c[nH]c3ccccc23)C(=O)N[C@@H](CCCCN)C(N)=O)NC(=O)[C@H](CCC(N)=O)NC(=O)[C@H](Cc2c[nH]cn2)NC(=O)[C@@H]2CCCN2C(=O)[C@H]([C@@H](C)CC)NC1=O` [Peptide 43, Q + TPN-RQ 3-16(C5S)] (H-QCNSNRRIIPHQCWK-NH2; disulfide 2-13), with less than 20%.
Regarding `CC[C@H](C)[C@@H]1NC(=O)[C@H](CCCNC(=N)N)NC(=O)[C@H](CCCNC(=N)N)NC(=O)[C@H](CC(N)=O)NC(=O)[C@H](CO)NC(=O)[C@H](CC(N)=O)NC(=O)[C@@H](NC(=O)[C@@H](N)CCC(N)=O)CSSC[C@@H](C(=O)N[C@@H](Cc2c[nH]c3ccccc23)C(=O)N[C@@H](CCCCN)C(N)=O)NC(=O)[C@H](CCC(N)=O)NC(=O)[C@H](CCCCN)NC(=O)[C@@H]2CCCN2C(=O)[C@H]([C@@H](C)CC)NC1=O` [Peptide 44, Q + TPN-RQ 3-16(C5S/H12K)] (H-QCNSNRRIIPKQCWK-NH2; disulfide 2-13), the inhibition at 1 µM is less than 20%.
Then `CC[C@H](C)[C@@H]1NC(=O)[C@H](CCCNC(=N)N)NC(=O)[C@H](CC(N)=O)NC(=O)[C@@H](NC(=O)[C@H](CC(N)=O)NC(=O)[C@H](CO)NC(=O)[C@H](CC(C)C)NC(=O)[C@H](C)N)CSSC[C@@H](C(=O)NCC(=O)N[C@@H](CCCCN)C(=O)N[C@@H](CCCCN)C(N)=O)NC(=O)[C@H](CCCCN)NC(=O)[C@H](CCCCN)NC(=O)[C@H](Cc2c[nH]c3ccccc23)NC(=O)[C@H](CO)NC(=O)[C@H](CCC(N)=O)NC(=O)[C@H](Cc2c[nH]cn2)NC(=O)[C@@H]2CCCN2C(=O)[C@H]([C@@H](C)CC)NC(=O)[C@H]([C@@H](C)CC)NC1=O` [Peptide 49, TPN-Q(C3S/C14S)] (H-ALSNCNRIIIPHQSWKKCGKK-NH2; disulfide 5-18), with less than 20%.
The value for `CC[C@H](C)[C@@H]1NC(=O)[C@H](CCCNC(=N)N)NC(=O)[C@H](CCCNC(=N)N)NC(=O)[C@H](CC(N)=O)NC(=O)[C@@H](NC(=O)[C@H](CC(N)=O)NC(=O)[C@H](CO)NC(=O)[C@H](CC(C)C)NC(=O)[C@H](C)N)CSSC[C@@H](C(=O)NCC(=O)N[C@@H](CCCCN)C(=O)N[C@@H](CCCCN)C(N)=O)NC(=O)[C@H](CCCCN)NC(=O)[C@H](CCCCN)NC(=O)[C@H](Cc2c[nH]c3ccccc23)NC(=O)[C@H](CO)NC(=O)[C@H](CCC(N)=O)NC(=O)[C@H](Cc2c[nH]cn2)NC(=O)[C@@H]2CCCN2C(=O)[C@H]([C@@H](C)CC)NC1=O` [Peptide 50, TPN-RQ(C3S/C14S)] (H-ALSNCNRRIIPHQSWKKCGKK-NH2; disulfide 5-18) was less than 20%; that for `CC[C@H](C)[C@@H]1NC(=O)[C@H](CCCNC(=N)N)NC(=O)[C@H](CC(N)=O)NC(=O)[C@@H]2CSSC[C@@H](C(=O)NCC(=O)N[C@@H](CCCCN)C(=O)N[C@@H](CCCCN)C(N)=O)NC(=O)[C@H](CCCCN)NC(=O)[C@H](CCCCN)NC(=O)[C@H](Cc3c[nH]c4ccccc34)NC(=O)[C@H](CSSC[C@H](NC(=O)[C@H](CC(C)C)NC(=O)[C@H](C)N)C(=O)N[C@@H](CC(N)=O)C(=O)N2)NC(=O)[C@H](CCC(N)=O)NC(=O)[C@H](Cc2c[nH]cn2)NC(=O)[C@@H]2CCCN2C(=O)[C@H]([C@@H](C)CC)NC1=O` [Peptide 51, TPN-RQ(Δ8R)] (H-ALCNCNRIIPHQCWKKCGKK-NH2; disulfide 3-13, 5-17) was 40 to 60%.
